Assay results from ChEMBL document CHEMBL3217615, “Novel 3,5-bis(arylidiene)-4-piperidone based monocarbonyl analogs of curcumin: anticancer activity evaluation and mode of action study” (2014).

Key:
Type in all cases: functional
[1] = tested on: COLO 205; assay: Induction of apoptosis in human COLO205 cells at 10 uM after 24 hrs by Annexin V/propidium iodide staining-based fluorescence microscopy
[2] = tested on: COLO 205; assay: Induction of apoptosis in human COLO205 cells assessed as DNA fragmentation at 10 uM
[3] = tested on: COLO 205; assay: Induction of apoptosis in human COLO205 cells assessed as caspase 3/7 activation at 10 uM by FLICA
[4] = tested on: COLO 205; assay: Induction of apoptosis in human COLO205 cells assessed as late apoptosis cells level at 10 uM after 24 hrs by Annexin V/propidium iodide staining-based fluorescence microscopy
[5] = tested on: COLO 205; assay: Induction of apoptosis in human COLO205 cells assessed as caspase 8 activation at 10 uM by FLICA
[6] = tested on: COLO 205; assay: Induction of apoptosis in human COLO205 cells assessed as caspase 9 activation at 10 uM by FLICA
[7] = tested on: COLO 205; assay: Induction of apoptosis in human COLO205 cells assessed as viable cells level at 10 uM after 24 hrs by Annexin V/propidium iodide staining-based fluorescence microscopy
[8] = tested on: COLO 205; assay: Induction of apoptosis in human COLO205 cells assessed as necrotic apoptosis cells level at 10 uM after 24 hrs by Annexin V/propidium iodide staining-based fluorescence microscopy
[9] = tested on: COLO 205; assay: Induction of apoptosis in human COLO205 cells assessed as early apoptosis cells level at 10 uM after 24 hrs by Annexin V/propidium iodide staining-based fluorescence microscopy

Question: How did the Activity [1] turn out when `CC[C@@]1(O)C(=O)OCc2c1cc1n(c2=O)Cc2cc3ccccc3nc2-1` [CAMPTOTHECIN] was run?
Answer: Its Activity is 53%.

Question: What about the Activity [2] of the same compound?
Answer: The Activity was 80.5%.

Question: What about the Activity [3] of the same compound?
Answer: Its Activity is 62%.

Question: What about the Activity [4] of the same compound?
Answer: The Activity was 17%.

Question: And the Activity [5]?
Answer: The Activity was 23.5%.

Question: What about the Activity [6] of the same compound?
Answer: The Activity was 19.5%.

Question: What about the Activity [7] of the same compound?
Answer: The Activity was 40%.

Question: And the Activity [8]?
Answer: Its Activity is 0%.

Question: And the Activity [9]?
Answer: The Activity was 42%.
